For assay [1], the system named is LVV particles. The arrangement: species or system lentivirus.
For assay [2], the system named is LVV particles. The format is binding, lentivirus.
In assay [3] the test system is LVV particles. On the set-up: species or system lentivirus. This is another data set of the same source.

Where “and” joins values, the source holds several entries; their conditions need not be identical. Equal values may be shown once. Where no end group is shown, it is not given here. A value given as a limit tells only on which side of the number the result lay.

For the substance SRAFVGDADRD, in assay [1], the “LVV adsorbed (binding capacity) across cycles” value is reported as ~10^9 TU/mL. The “binding capacity (summary)” value in assay [2] is ~6.24·10^9 TU per mL of resin.
On the same counts, the results for SFVRIGLSD are ~10^9 TU/mL and ~6.24·10^9 TU per mL of resin.
With “SRAFVGDADRD-Poros: peptide SRAFVGDADRD (SEQ ID NO: 4) conjugated on aminated Poros resin (also: conjugated to aminated Poros resin, site not given here)”, in assay [2], the “DBC10% (vg/mL), real time qPCR” value is 6.89·10^9 vg/mL.
Turning to GKEAAFAA, in assay [1], the “LVV adsorbed (binding capacity) across cycles” value was > 10^9 TU/mL. Moreover, the “DBC10% (TU per mL of resin)” value in assay [3] was 5.3 · 10^9 TU per mL of resin and 3.9 · 10^9 TU per mL of resin and 4.4 · 10^9 TU per mL of resin and 3.7 · 10^9 TU per mL of resin.
